In patent US7135466B2 (Kirin Beer Kabushiki Kaisha, priority 1999, dated 2006):
Like-named read-outs stand apart in the source and are kept apart here.

Experiments:
[1] = target: T1, PDGF-Ra (Homo sapiens, UniProt P16234); experiment: Inhibitory activity against PDGF-Ra phosphorylation by PDGF-AA stimulation using G292; type: cell-based; details: for IC50: > means inhibition at indicated concentration not more than 50%, < and << not less than 50%, read-out: PDGF (E) IC50; for inhibition at 0.1 µM: G292, at 100 nM, read-out: PDGF (E) inhibition (%) at 100 nM
T1 construct: host or cells: G-292 human osteosarcoma cells
T1 sequence (P16234 24-1089): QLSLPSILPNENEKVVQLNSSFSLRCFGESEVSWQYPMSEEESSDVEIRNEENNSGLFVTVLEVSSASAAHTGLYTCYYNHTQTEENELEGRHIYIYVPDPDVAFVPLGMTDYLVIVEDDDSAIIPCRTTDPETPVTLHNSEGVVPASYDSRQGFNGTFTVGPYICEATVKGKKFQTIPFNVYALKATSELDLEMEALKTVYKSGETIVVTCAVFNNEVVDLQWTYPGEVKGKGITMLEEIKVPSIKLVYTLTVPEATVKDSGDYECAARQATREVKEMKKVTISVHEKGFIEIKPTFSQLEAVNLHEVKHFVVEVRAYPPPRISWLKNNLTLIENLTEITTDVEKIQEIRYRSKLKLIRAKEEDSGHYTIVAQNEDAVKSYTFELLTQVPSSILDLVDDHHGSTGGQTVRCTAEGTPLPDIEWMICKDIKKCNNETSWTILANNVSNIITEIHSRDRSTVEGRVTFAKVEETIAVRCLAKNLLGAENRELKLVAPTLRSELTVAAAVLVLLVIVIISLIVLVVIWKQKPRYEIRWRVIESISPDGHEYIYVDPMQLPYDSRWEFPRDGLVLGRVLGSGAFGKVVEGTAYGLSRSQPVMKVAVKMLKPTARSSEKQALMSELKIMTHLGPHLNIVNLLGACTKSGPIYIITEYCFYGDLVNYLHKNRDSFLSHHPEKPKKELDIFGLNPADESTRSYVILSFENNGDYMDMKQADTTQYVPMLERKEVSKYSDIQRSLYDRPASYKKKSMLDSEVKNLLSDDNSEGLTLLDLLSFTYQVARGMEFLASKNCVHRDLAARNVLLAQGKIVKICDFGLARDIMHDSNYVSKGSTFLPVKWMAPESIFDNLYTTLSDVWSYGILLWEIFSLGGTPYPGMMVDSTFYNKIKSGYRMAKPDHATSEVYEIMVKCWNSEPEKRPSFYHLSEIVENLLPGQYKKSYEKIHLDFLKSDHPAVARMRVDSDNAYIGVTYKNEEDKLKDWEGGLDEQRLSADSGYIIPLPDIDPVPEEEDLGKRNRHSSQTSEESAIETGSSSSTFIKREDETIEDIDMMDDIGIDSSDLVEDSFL
Outline: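 G-292 human osteosarcoma cells, serum-starved overnight in 0.1% FBS, were pretreated with compound in DMSO for 1 hr at 37 °C, then stimulated with 50 ng/ml PDGF-AA for 5 min. Lysates were captured on anti-phosphotyrosine PY-20 plates and probed with anti-PDGF-Ra plus HRP secondary; absorbance read at 450 nm.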

[2] = target: T2, c-kit (Homo sapiens, UniProt P10721); experiment: Inhibitory activity against c-kit autophosphorylation (MO7e cells, h-SCF); type: cell-based; details: for IC50: MO7e cells, read-out: c-kit IC50; for inhibition at 1 µM: Mo7e, at 1000 nM
T2 construct: MO7e (human megakaryocytic leukemia cell line) which had been arrested for 20 hr; endogenous in cells; host or cells: MO7e human megakaryocytic leukemia cell line
T2 sequence (P10721 26-976): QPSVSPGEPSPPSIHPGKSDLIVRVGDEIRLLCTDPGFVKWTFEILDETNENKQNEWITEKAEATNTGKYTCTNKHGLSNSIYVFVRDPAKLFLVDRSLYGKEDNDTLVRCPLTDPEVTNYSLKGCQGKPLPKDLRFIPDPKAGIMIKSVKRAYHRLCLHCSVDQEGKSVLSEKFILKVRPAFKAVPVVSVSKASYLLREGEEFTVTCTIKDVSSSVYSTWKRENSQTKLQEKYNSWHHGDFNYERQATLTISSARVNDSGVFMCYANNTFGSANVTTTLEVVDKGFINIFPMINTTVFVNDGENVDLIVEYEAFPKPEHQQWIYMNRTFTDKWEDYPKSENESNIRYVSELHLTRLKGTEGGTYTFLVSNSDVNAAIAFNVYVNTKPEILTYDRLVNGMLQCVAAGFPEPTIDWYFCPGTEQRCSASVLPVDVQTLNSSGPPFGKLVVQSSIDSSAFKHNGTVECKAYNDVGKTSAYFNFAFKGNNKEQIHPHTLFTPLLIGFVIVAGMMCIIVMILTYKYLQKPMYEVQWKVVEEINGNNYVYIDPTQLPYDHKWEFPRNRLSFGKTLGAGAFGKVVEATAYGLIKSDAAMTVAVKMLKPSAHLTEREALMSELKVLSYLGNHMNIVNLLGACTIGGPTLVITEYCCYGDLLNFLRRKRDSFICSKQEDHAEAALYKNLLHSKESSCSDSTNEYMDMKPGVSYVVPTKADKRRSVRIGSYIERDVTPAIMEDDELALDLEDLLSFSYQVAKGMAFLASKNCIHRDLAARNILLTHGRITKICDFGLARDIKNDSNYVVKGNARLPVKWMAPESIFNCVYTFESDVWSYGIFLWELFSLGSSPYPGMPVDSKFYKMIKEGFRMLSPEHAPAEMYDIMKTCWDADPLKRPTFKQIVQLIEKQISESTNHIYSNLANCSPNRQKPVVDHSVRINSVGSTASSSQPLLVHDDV
Outline: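 Growth-arrested (20 hr) MO7e; cpd in DMSO, 1 hr; h-SCF 50 ng/ml, 5 min; lyse. ELISA: anti-pTyr (PY-20) capture, anti-c-kit 1° Ab, HRP anti-rabbit 2° Ab, A450.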

[3] = figure within parentheses in >100( )
[4] = figure within parentheses in −( ) or >1000( )

SMILES	IC50 ([1]; Pharmacological Test Example 1)	IC50 ([2]; h-SCF 50 ng/ml)	IC50 [1]	IC50 ([2]; 50 ng/ml h-SCF)	further results
COc1cc2nccc(Oc3ccc(NC(=O)OCCCOc4ccc(Cl)cc4)cc3)c2cc1OC [Example 27, 3-(4-Chlorophenoxy)propyl N-{4-[(6,7-dimethoxy-4-quinolyl)oxy]phenyl}carbamate]	< 0.01 µM	0.076 µM			
COc1cc2nccc(Oc3ccc(OCCCOc4ccccc4C)cc3)c2cc1OC [Example 792, 6,7-Dimethoxy-4-{4-[3-(2-methylphenoxy)propoxy]phenoxy}quinoline]			0.006 µM	0.301 µM	
COc1cc2ncnc(Oc3ccc(NC(=O)OC4CCCC4)cc3)c2cc1OC [Example 366, Cyclopentyl N-{4-[(6,7-dimethoxy-4-quinazolinyl)oxy]phenyl}carbamate]	0.027 µM	0.066 µM			
COc1cc2nccc(Oc3ccc(NC(=O)OCc4cccnc4)c(C)c3C)c2cc1OC [Example 432, 3-Pyridylmethyl N-{4-[(6,7-dimethoxy-4-quinolyl)oxy]-2,3-dimethylphenyl}carbamate]			0.013 µM	< 0.03 µM	
COc1cc2nccc(Oc3ccc(NC(=O)NC4CCN(Cc5ccccc5)CC4)c(C)c3)c2cc1OC [Example 643, N-(1-Benzyl-4-piperidyl)-N′-{4-[(6,7-dimethoxy-4-quinolyl)oxy]-2-methylphenyl}urea]			> 0.1 µM		inhibition at 0.1 µM [1, 3]: 40%; inhibition at 1 µM [2, 4]: 2%
COc1cc2nccc(Oc3ccc(NC(=O)NN4CCCCC4)c([N+](=O)[O-])c3)c2cc1OC [Example 594, N-{4-[(6,7-Dimethoxy-4-quinolyl)oxy]-2-nitrophenyl}-N′-(1-piperidinyl)urea]			> 0.1 µM		inhibition at 0.1 µM [1, 3]: 39%; inhibition at 1 µM [2, 4]: 10%
COc1cc2nccc(Oc3ccc(NC(=S)NC(=O)C(OC)c4ccccc4)cc3)c2cc1OC (stereo not drawn) [Example 761, N-{4-[(6,7-Dimethoxy-4-quinolyl)oxy]phenyl}-N′-(2-methoxy-2-phenylacetyl)thiourea]			> 0.1 µM		inhibition at 0.1 µM [1, 3]: 37%; inhibition at 1 µM [2, 4]: 44%
CCCC(CC)OC(=O)Nc1cc(C)c(Oc2ccnc3cc(OC)c(OC)cc23)cc1C (stereo not drawn) [Example 276, 1-Ethylbutyl N-{4-[(6,7-dimethoxy-4-quinolyl)oxy]-2,5-dimethylphenyl}carbamate]	0.016 µM	0.413 µM			
CCOc1ccccc1C(C)OC(=O)Nc1ccc(Oc2ccnc3cc(OC)c(OC)cc23)c(C)c1C (stereo not drawn) [Example 128, 1-(2-Ethoxyphenyl)ethyl N-{4-[(6,7-dimethoxy-4-quinolyl)oxy]-2,3-dimethylphenyl}carbamate]	0.026 µM	0.375 µM			
CCCCCC(C)OC(=O)Nc1ccc(Oc2ccnc3cc(OC)c(OC)cc23)c(C)c1C (stereo not drawn) [Example 413, 1-Methylhexyl N-{4-[(6,7-dimethoxy-4-quinolyl)oxy]-2,3-dimethylphenyl}carbamate]			0.039 µM	0.05 µM	
COc1cc2nccc(Oc3cc(C)c(NC(=O)OCc4ccccn4)cc3C)c2cc1OC [Example 430, 2-Pyridylmethyl N-{4-[(6,7-dimethoxy-4-quinolyl)oxy]-2,5-dimethylphenyl}carbamate]			0.076 µM	0.182 µM	
CCOc1ccccc1C(C)OC(=O)Nc1cc(C)c(Oc2ccnc3cc(OC)c(OC)cc23)cc1C (stereo not drawn) [Example 129, 1-(2-Ethoxyphenyl)-ethyl N-{4-[(6,7-dimethoxy-4-quinolyl)oxy]-2,5-dimethylphenyl}carbamate]	0.064 µM	0.732 µM			
COc1cc2ncnc(Oc3ccc(OC(=O)c4ccccc4)cc3)c2cc1OC [Example 772, 4-[(6,7-Dimethoxy-4-quinazolinyl)oxy]phenyl benzoate]			> 0.1 µM	0.55 µM	inhibition at 0.1 µM [1, 3]: 13%
COc1cc2nccc(Oc3ccc(NC(=O)OCCSc4ccc(C)cc4)cc3)c2cc1OC [Example 137, 3-[(4-Methylphenyl)sulfanyl]ethyl N-{4-[(dimethoxy-4-quinolyl)oxy]-phenyl}carbamate]	< 0.01 µM	0.233 µM			
COc1cc2nccc(Oc3ccc(NC(=O)OCC4CCC4)cc3)c2cc1OC [Example 385, Cyclobutylmethyl N-{4-[(6,7-dimethoxy-4-quinolyl)oxy]phenyl}carbamate]	< 0.01 µM	0.087 µM			
COc1cc2ncnc(Oc3ccc(NC(=O)OCCN4CCOCC4)cc3)c2cc1OC [Example 399, 2-Morpholinoethyl N-{4-[(6,7-dimethoxy-4-quinazolinyl)oxy]phenyl}carbamate]			0.063 µM	0.327 µM	
CCCC(CC)OC(=O)Nc1ccc(Oc2ncnc3cc(OC)c(OC)cc23)cc1Cl (stereo not drawn) [Example 338, 1-Ethylbutyl N-{2-chloro-4-[(6,7-dimethoxy-4-quinazolinyl)oxy]phenyl}carbamate]	0.025 µM	0.956 µM			

SMILES	IC50 ([1]; Pharmacological Test Example 1)	IC50 ([2]; h-SCF 50 ng/ml)	IC50 [1]	IC50 ([2]; 50 ng/ml h-SCF)	further results
COc1cc2ncnc(Oc3ccc(N(C)C(=O)OCc4ccccc4Cl)cc3)c2cc1OC [Example 492, 2-Chlorobenzyl N-{4-[(6,7-dimethoxy-4-quinazolinyl)oxy]phenyl}-N-methylcarbamate]			0.02 µM	0.321 µM	
COc1cc2nccc(Oc3ccc(NC(=S)NC(=O)CC4CCCCC4)cc3Cl)c2cc1OC [Example 704, N-{3-Chloro-4-[(6,7-dimethoxy-4-quinolyl)oxy]phenyl}-N′-(2-cyclohexylacetyl)thiourea]			0.016 µM	0.177 µM	
COc1cc2ncnc(Oc3ccc(NC(=O)OCCCOc4cccc(Cl)c4)c(C)c3C)c2cc1OC [Example 212, 3-(3-Chlorophenoxy)propyl N-{4-[(6,7-dimethoxy-4-quinazolinyl)oxy]-2,3-dimethylphenyl}carbamate]	0.028 µM	0.07 µM			
COc1cccc(OCCCOc2ccc(Oc3ccnc4cc(OC)c(OC)cc34)cc2)c1 [Example 793, 6,7-Dimethoxy-4-{4-[3-(3-methoxyphenoxy)propoxy]phenoxy}quinoline]			0.006 µM	0.335 µM	
COc1cc2ncnc(Oc3ccc(NC(=O)OCCN(C)C)cc3)c2cc1OC [Example 191, 2-(Dimethylamino)ethyl N-{4-[(6,7-dimethoxy-4-quinazolinyl)oxy]phenyl}carbamate]	0.084 µM	0.503 µM			
CCCC(CCN1CCCCC1)OC(=O)Nc1ccc(Oc2ncnc3cc(OC)c(OC)cc23)cc1 (stereo not drawn) [Example 448, 1-(2-Piperidinoethyl)butyl N-{4-[(6,7-dimethoxy-4-quinazolinyl)oxy]phenyl}carbamate]			> 0.1 µM		inhibition at 0.1 µM [1, 3]: 39%; inhibition at 1 µM [2, 4]: 25%
COc1cc2ncnc(Oc3ccc(NC(=O)OCC4CC4)cc3)c2cc1OC [Example 383, Cyclopropylmethyl N-{4-[(6,7-dimethoxy-4-quinazolinyl)oxy]phenyl}carbamate]	0.074 µM	0.09 µM			
COc1cc2nccc(Oc3cc(C)c(NC(=O)OCCSc4cc(C)ccc4C)cc3C)c2cc1OC [Example 167, 2-[(2,5-Dimethylphenyl)sulfanyl]ethyl N-{4-[(6,7-Dimethoxy-4-quinolyl)oxy]-2,5-dimethylphenyl}carbamate]	0.045 µM	0.37 µM			
COc1cc2nccc(Oc3ccc(NC(=O)OCCCOc4cccc(F)c4)cc3)c2cc1OC [Example 147, 3-(3-Fluorophenoxy)propyl N-{4-[(6,7-dimethoxy-4-quinolyl)oxy]phenyl}carbamate]	0.011 µM	< 0.03 µM			
COc1cc2nccc(Oc3ccc(NC(=O)OCCCN4CCN(C)CC4)cc3)c2cc1OC [Example 424, 3-(4-Methylpiperazino)propyl N-{4-[(6,7-dimethoxy-4-quinolyl)oxy]phenyl}carbamate]			0.047 µM	0.224 µM	
COc1cc2ncnc(Oc3ccc(NC(=O)OCCCOc4ccc(F)cc4)c(C)c3C)c2cc1OC [Example 156, 3-(4-Fluorophenoxy)propyl N-{4-[(6,7-dimethoxy-4-quinazolinyl)oxy]-2,3-dimethylphenyl}-carbamate]	> 0.1 µM	0.033 µM			inhibition at 0.1 µM ([1]; figure in parentheses in >100( )): 48%
COc1cc2nccc(Oc3ccc(NCCCOc4ccccc4Cl)c(C)c3C)c2cc1OC [Example 893]			0.052 µM		IC50 ([2]; h-SCF stimulation): 0.64 µM
COc1cc2nccc(Oc3cc(C)c(NC(=O)OCCCSc4cc(C)ccc4C)cc3C)c2cc1OC [Example 171, 3-[(2,5-Dimethylphenyl)sulfanyl]propyl N-{4-[(6,7-dimethoxy-4-quinolyl)oxy]-2,5-dimethylphenyl}carbamate]	0.022 µM	0.083 µM			
CCCCCCOC(=O)Nc1ccc(Oc2ccnc3cc(OC)c(OC)cc23)cc1 [Example 256, Hexyl N-{4-[(6,7-dimethoxy-4-quinolyl)oxy]phenyl}carbamate]	< 0.003 µM	0.015 µM			
COc1cc2ncnc(Oc3ccc(NC(=O)OCCCSc4ccc(Cl)cc4C)cc3)c2cc1OC [Example 80]	0.012 µM	0.137 µM			
COc1cc2nccc(Oc3ccc(NC(=O)Oc4c(C)cccc4C)cc3)c2cc1OC [Example 269, 2,6-Dimethylphenyl N-{4-[(6,7-dimethoxy-4-quinolyl)oxy]phenyl}carbamate]	0.017 µM				inhibition at 1 µM ([2]; figure in parentheses in −( )): 48%
